Test results: the METLIN SMRT retention time set (Domingo-Almenara et al. 2019)

Experiment: gradient 5% acetonitrile 3 min, to 50% in 2 min, to 85% in 15 min, held 3 min, 100 µL/min
Settings: column: Zorbax Extend-C18 2.1 x 50 mm; eluents: water / acetonitrile, 0.1% formic acid
Method in brief: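 A Zorbax Extend-C18 column (2.1 × 50 mm, 1.8 μm) run at 100 μL/min with water and acetonitrile, both containing 0.1% formic acid, separated mixtures of ~100 pure standards. The HPLC was coupled to a quadrupole time-of-flight mass spectrometer operated in positive and negative ionization mode, with dead and dwell volumes of 40 μL and 900 μL. Each retention time was taken from a computationally picked adduct peak that was then manually inspected.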

| SMILES | RP-LC retention time |
| --- | --- |
| CCN1c2ccccc2C(=O)NC12CCN(C(=O)c1ccc(C)cc1)CC2 | 804 s |
| COC(=O)c1ccccc1NC(=O)N1CCN(c2ccc(=O)n(-c3ccccc3)n2)CC1 | 876 s |
| CC(C)n1cnc(S(=O)(=O)N2CCCC(C(=O)Nc3ccc(Br)cc3F)C2)c1 (stereo unspecified) | 893 s |
| COC(=O)c1sccc1NC(=O)Cn1c(C)cc(C)c(-c2nc(-c3cccc(Cl)c3)no2)c1=O | 1170 s |
| OCCCc1nc2ccccc2n1Cc1ccccc1Cl | 568 s |
| Cc1cccc(Sc2nccnc2N2CCCC(C(=O)NCCC(C)C)C2)c1 (stereo unspecified) | 1140 s |
| Cc1ccc(/C=C/S(=O)(=O)N2CCN(c3ccc(-c4cccs4)nn3)CC2)cc1 | 929 s |
| Cc1cc(C2CCCN2C(=O)Cc2ccccc2F)no1 (stereo unspecified) | 723 s |
| O=c1n(Cc2ccc(F)cc2)nc2ccc(S(=O)(=O)N3CCOCC3)cn12 | 785 s |
| CC1CCCCN1CCNS(=O)(=O)c1ccccc1-c1nc(-c2ccc(F)cc2)no1 (stereo unspecified) | 755 s |
| CCN1CCCn2cc(S(=O)(=O)Nc3ccc(F)cc3)cc2C1=O | 721 s |
| Cc1[nH]c2ccccc2c1C(=O)CSc1n[nH]c(N)n1 | 567 s |
| O=C(c1[nH]nc2c1CCc1ccccc1-2)N1CCC(c2noc(-c3ccccn3)n2)C1 (stereo unspecified) | 776 s |
| Cc1ccc2c(Nc3ccc(C)c(C)c3)c(C(=O)N3CCC(C)CC3)cnc2n1 | 681 s |
| CCOc1ccc(-c2noc(Cn3nc(-c4ccc(CC)cc4)ccc3=O)n2)cc1 | 597 s |
| O=C(NCC1CCCO1)C1CCN(c2nnc(-c3ccccc3)o2)CC1 (stereo unspecified) | 649 s |
| COc1ccc(-c2c(C)noc2NC(C)=O)cc1S(=O)(=O)Nc1ccc(F)c(F)c1 | 748 s |
| O=C(Nc1ccc(Br)cc1F)c1cc(-c2cccnc2)n[nH]1 | 733 s |
| Cc1cc(C)cc(NC(=O)Nc2ccc3nncn3c2)c1 | 738 s |
| O=C(CSc1nnc2scc(-c3ccc(Cl)cc3)n12)NCC1CCCO1 (stereo unspecified) | 675 s |
| O=C(Nc1ccc(C(=O)N2CCN(c3ccccn3)CC2)cc1)C1=CSCCO1 | 611 s |
| O=c1ccc(N2CCC(NS(=O)(=O)c3cccnc3)CC2)nn1CC1CC1 | 700 s |

| SMILES | RP-LC retention time |
| --- | --- |
| CCOC(=O)c1noc2nc(C)nc(NC(C)c3ccccc3)c12 (stereo unspecified) | 1140 s |
| Cc1nc(N2CCN(Cc3ccc4c(c3)OCO4)CC2)nc2c1C(=O)CC(c1cccs1)C2 (stereo unspecified) | 753 s |
| CCc1onc(C)c1C1CCCN1C(=O)Nc1cccc(C)c1 (stereo unspecified) | 842 s |
| CCCNC(=O)CC1=C2CCCCC2N(C)C1=O (stereo unspecified) | 638 s |
| CCCN1CCn2cc(S(=O)(=O)Nc3cccc(C)c3)cc2C1=O | 777 s |
| CC(C)COC(=O)Nc1nc(CC(=O)Nc2ccccc2C(N)=O)cs1 | 703 s |
| COc1ccc(-n2cc(C(=O)OCC(=O)OC(C)(C)C)c3ccccc3c2=O)cc1 | 1140 s |
| O=S(=O)(c1ccc2nncn2c1)N(Cc1ccc(F)cc1)c1cccc(F)c1 | 861 s |
| CCOc1ccc(NC(=O)C2=C(C)NC(=O)NC2c2ccc([N+](=O)[O-])cc2)cc1 (stereo unspecified) | 695 s |
| Cc1sc(-c2cc(C(F)(F)F)on2)cc1S(=O)(=O)NCc1ccc(N(C)C)cc1 | 982 s |
| COc1ccc(S(=O)(=O)Nc2ccc(-c3cn4ccc(C)nc4n3)cc2)cc1C | 661 s |
| COc1ccc(C2CCCN2C(=O)c2cc(-c3ccco3)on2)cc1 (stereo unspecified) | 961 s |
| CCC(=O)NCC12CCCC=C1N(C)C(=O)CC2 (stereo unspecified) | 648 s |
| CCN1C(=O)c2cccnc2Sc2cc(NC(=O)CCc3cccc(OC)c3)ccc21 | 855 s |
| CC(C)Cc1nc(CNC(=O)C2CCCCC2)no1 | 836 s |
| COc1cc(NC(=O)Cn2c(=O)n(-c3ccc(F)cc3)c(=O)c3c2cc(C)n3C)cc(OC)c1 | 798 s |
| Cc1ccc2c(Nc3cccc(Cl)c3)c(C(=O)N3CCOCC3)cnc2n1 | 606 s |
| COc1ccc(NC(=O)C2CCN(S(=O)(=O)c3ccc4[nH]c(=O)ccc4c3)CC2)c(OC)c1 | 663 s |
| COCCN1C(=O)[C@H]2CN(Cc3cc(Cl)ccc3F)C[C@H]2C1=O | 696 s |
| COC(=O)[C@H]1[C@H]2C[C@@H]3c4[nH]c5cc(OC)ccc5c4CCN3C[C@H]2C[C@@H](OC(=O)CC(C)=O)[C@@H]1OC | 731 s |
| CC(C)c1noc(-c2ccnc(-n3cnc(C(=O)NCc4ccccc4)c3)c2)n1 | 939 s |
| CCNC(=O)C1CCN(c2cc(SCC(=O)Nc3ccccc3OCC)ncn2)CC1 | 760 s |

| SMILES | RP-LC retention time |
| --- | --- |
| Brc1ccc(OCc2nc3c4ccccc4ncn3n2)cc1 | 981 s |
| CN(C)C(=O)c1ccc2c(c1)n(Cc1ccccc1)c(=O)c1ccnn12 | 768 s |
| Cc1noc(C2CN(C(=O)c3cc4ccccc4[nH]3)C2)n1 | 675 s |
| CCOC(=O)Nc1ccc2nc(N3CCCCCC3)sc2c1 | 798 s |
| CSc1ccc(CCNC(=O)C2CCCN(c3ncnc4c3nc3n4CCCCC3)C2)cc1 (stereo unspecified) | 820 s |
| Cc1cc(NC(=O)Nc2ccc3nnc(C4CCC4)n3c2)ccc1Br | 903 s |
| COc1ccc(NC(=O)c2cnc3c(c2)c(=O)n(C)c(=O)n3-c2ccc(C)cc2)c(OC)c1 | 913 s |
| Cn1c(CCc2cccc(NC(=O)C3CCN(S(=O)(=O)N4CCCC4)CC3)c2)nc2ccccc21 | 672 s |
| Cc1ccc(CN2CC(COc3cccnc3)C3(CCOCC3)C2)c(C)c1 (stereo unspecified) | 591 s |
| COc1ccccc1-c1nnc(-c2ccc(OC)c(S(=O)(=O)N3CCOCC3)c2)o1 | 781 s |
| Cc1ccc(CNS(=O)(=O)c2ccc(-c3c(C)noc3C)cc2)cc1 | 996 s |
| CC(NC(=O)c1ccccc1)c1nc(-c2ccc3c(c2)nnn3C2CCCC2)no1 (stereo unspecified) | 964 s |
| O=[N+]([O-])c1cccc(/C=C/c2ccccn2)c1 | 747 s |
| CCOC(=O)c1c(NC(=O)C2CCN(S(=O)(=O)Cc3ccccc3)CC2)sc2c1CCCC2 | 1340 s |
| CCCN1CCN(CCNC(=O)C2CCCN(c3ncc(-c4ccccc4)cn3)C2)CC1 (stereo unspecified) | 639 s |
| CNC(=O)C1CCCN(S(C)(=O)=O)CCC(=O)NCC1 (stereo unspecified) | 539 s |
| Cc1ccc(NC(=O)Cn2nc(N3CCCCCC3)c3ccccc3c2=O)c(F)c1 | 1190 s |
| O=C(NCCc1c[nH]c2ccccc12)C1CCCN(c2nnc(N3CCCC3=O)s2)C1 (stereo unspecified) | 690 s |
| O=C(Nc1cccc(F)c1)C1CCCN(c2nnc3ccc(Cl)cn23)C1 (stereo unspecified) | 806 s |
| Cc1cc(NC(=O)CN2CCc3nc(NC(=O)C4CC4)sc3C2)no1 | 546 s |
| Cc1cccc(N(C)C(=O)C(C)n2cnc3nc4c(cc3c2=O)CCCC4)c1 (stereo unspecified) | 762 s |
| Cc1[nH]c(C(=O)N2CCC(CC(=O)NCc3cccnc3)CC2)c(C)c1C(=O)OC(C)C | 597 s |
